Results: ChEMBL document CHEMBL1201862, “PubChem BioAssay data set” (2004)
Active and inactive are the calls of the source.

Experiments:
[1] = system: HT-1080; assay: HT1080 cell viability loss – fluorescence readout (AID 620); format: functional, cell-based; details: Homo sapiens
[2] = molecular target: Luciferin 4-monooxygenase (Photinus pyralis, UniProt P08659); assay: Counter Screen for Luciferase-based Assay Positives. [Related pubchem assays: 620, 618, 411 ]
[3] = molecular target: Melanocortin receptor 4 (Homo sapiens, UniProt P32245); assay: inhibitors of MC4R cAMP signaling – cell-based, TR-FRET, biased antagonists, dose response (AID 602298); format: functional;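 note: antagonist potency against agonist-stimulated cAMP production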
Chain of Melanocortin receptor 4 (P32245 whole entry): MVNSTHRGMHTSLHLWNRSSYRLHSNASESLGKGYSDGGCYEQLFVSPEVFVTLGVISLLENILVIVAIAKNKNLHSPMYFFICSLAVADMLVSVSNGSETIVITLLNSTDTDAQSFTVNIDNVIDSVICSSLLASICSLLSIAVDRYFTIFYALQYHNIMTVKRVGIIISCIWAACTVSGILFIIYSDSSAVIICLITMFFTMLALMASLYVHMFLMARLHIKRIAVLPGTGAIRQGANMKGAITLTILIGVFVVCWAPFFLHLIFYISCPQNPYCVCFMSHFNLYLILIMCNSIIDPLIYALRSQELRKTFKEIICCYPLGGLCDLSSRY

[4] = cAMP pathway inhibition in counterscreen cell line – TR-FRET cAMP detection, counter-screen for MC4R biased antagonist project, dose response (AID 602305); format: functional, cell-based;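 note: U2OS cells stimulated with forskolin near its EC80 as the cAMP inducer; potency is for inhibition of forskolin-stimulated cAMP signaling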
[5] = system: Streptococcus sp. 'group A'; assay: Streptococcus pyogenes SK(-)GAS viability under kanamycin – luminescence, BacTiterGlo, confirmation, counter-screen for streptokinase expression inhibitor project, dose response (AID 1900); format: functional, organism-based
[6] = NIH3T3 cell viability loss – ATP luminescence, mouse fibroblasts, counter-screen, dose response (AID 2010); format: functional, cell-based;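 note: cells exposed to compound for about 90 hours before reading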
[7] = Trypanosoma cruzi growth suppression in host cells – NIH3T3 host cells, beta-gal luminescence, confirmation (AID 2044); format: functional, cell-based;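 note: intracellular parasites grown in NIH/3T3 mouse fibroblasts as host cells; luminescent beta-galactosidase reporter signal from transgenic T. cruzi replicating inside host cells; inhibitors lower the luminescence signal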
[8] = Luminescence Cell-Based Dose Retest to Confirm Inhibitors of Cancer Stem Cells. [Related pubchem assays (depositor defined):AID2717, AID2721]; format: functional; details: Homo sapiens
[9] = viability of uninfected HEp-2 cells – cell-based, HTS, cytotoxicity control for RSV inhibitor project, dose response (AID 2410); format: functional; details: human respiratory syncytial virus
[10] = system: Streptococcus; assay: GAS UMAA2166 growth inhibition – luminescence, BacTiterGlo, counter-screen for streptokinase expression inhibitor project, dose response (AID 1915); format: functional, organism-based;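 note: potency for reduction of bacterial viability or growth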
[11] = molecular target: T1, Streptokinase A (Streptococcus pyogenes serotype M1, UniProt P10520); assay: viability-normalized secreted streptokinase activity reduction – plasminogen activation absorbance, OD405, dose response (AID 1914); format: functional, Streptococcus pyogenes M1 GAS;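 note: secreted streptokinase activity via plasminogen activation per viability signal from cell pellet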
T1 sequence (P10520 whole entry): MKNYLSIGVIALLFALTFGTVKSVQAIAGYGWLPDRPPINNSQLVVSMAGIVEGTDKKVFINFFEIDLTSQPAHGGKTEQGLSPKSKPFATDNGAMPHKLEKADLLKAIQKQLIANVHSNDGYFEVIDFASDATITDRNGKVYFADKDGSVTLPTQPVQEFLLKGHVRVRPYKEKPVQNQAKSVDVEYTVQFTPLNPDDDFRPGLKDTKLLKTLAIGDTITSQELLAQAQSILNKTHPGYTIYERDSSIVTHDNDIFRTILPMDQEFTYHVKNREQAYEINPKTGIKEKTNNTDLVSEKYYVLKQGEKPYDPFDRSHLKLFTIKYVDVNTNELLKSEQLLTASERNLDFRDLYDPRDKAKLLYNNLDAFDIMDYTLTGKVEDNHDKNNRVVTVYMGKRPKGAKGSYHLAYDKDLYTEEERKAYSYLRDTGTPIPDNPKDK

[12] = molecular target: Photoreceptor-specific nuclear receptor (Homo sapiens, UniProt Q9Y5X4); format: functional, cell-based;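 note: CHO-S cells with Gal4-NCOR and VP16-NR2E3 two-hybrid luciferase reporter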
Chain of Photoreceptor-specific nuclear receptor (Q9Y5X4 whole entry, the tested form may be a part): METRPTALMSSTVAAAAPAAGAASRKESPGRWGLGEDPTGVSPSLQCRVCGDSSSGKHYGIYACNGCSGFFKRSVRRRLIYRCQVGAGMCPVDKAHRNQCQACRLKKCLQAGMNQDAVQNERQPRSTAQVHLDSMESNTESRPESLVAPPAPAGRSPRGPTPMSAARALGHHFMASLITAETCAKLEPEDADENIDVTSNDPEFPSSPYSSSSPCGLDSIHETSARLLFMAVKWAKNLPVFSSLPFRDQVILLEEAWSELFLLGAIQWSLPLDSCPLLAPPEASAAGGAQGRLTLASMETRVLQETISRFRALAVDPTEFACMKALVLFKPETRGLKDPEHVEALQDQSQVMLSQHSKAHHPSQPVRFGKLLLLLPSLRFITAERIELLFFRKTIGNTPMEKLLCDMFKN

[13] = molecular target: Ras and Rab interactor 1/Tyrosine-protein kinase ABL1 (Homo sapiens, UniProt P00519+Q13671); format: functional;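 note: biochemical TR-FRET dose-response test measuring inhibition of binding between Rin1 and Abl proteins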
Chain of Ras and Rab interactor 1/Tyrosine-protein kinase ABL1 (P00519 whole entry): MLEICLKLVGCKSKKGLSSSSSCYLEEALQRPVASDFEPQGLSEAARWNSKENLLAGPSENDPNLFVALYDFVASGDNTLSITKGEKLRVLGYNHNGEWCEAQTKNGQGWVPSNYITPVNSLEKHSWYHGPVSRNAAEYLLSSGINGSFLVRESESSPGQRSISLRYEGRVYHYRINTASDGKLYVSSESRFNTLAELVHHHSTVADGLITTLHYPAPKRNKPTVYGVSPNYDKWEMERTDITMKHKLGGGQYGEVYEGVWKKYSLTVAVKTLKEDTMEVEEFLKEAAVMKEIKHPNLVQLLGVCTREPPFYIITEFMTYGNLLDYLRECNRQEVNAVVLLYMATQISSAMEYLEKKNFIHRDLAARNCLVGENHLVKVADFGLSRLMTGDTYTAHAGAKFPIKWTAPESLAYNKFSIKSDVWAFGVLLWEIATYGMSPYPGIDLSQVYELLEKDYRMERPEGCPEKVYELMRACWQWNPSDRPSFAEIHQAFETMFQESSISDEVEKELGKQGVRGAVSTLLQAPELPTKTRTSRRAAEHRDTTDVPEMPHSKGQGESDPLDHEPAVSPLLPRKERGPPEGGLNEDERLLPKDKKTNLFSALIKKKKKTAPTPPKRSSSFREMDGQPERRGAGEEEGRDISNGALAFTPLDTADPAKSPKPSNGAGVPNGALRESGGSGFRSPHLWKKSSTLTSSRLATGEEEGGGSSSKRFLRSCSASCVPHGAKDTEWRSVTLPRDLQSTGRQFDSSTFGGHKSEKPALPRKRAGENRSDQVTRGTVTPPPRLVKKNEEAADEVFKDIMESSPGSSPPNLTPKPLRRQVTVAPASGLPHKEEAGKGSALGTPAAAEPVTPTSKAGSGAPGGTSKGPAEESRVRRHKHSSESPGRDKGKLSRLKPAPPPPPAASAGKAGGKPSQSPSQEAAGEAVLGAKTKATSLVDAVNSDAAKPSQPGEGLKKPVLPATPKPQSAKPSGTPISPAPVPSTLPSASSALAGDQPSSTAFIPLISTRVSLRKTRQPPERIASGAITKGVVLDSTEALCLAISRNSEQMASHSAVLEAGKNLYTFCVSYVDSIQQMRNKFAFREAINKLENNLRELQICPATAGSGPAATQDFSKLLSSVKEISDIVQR
Chain of Ras and Rab interactor 1/Tyrosine-protein kinase ABL1 (Q13671 whole entry): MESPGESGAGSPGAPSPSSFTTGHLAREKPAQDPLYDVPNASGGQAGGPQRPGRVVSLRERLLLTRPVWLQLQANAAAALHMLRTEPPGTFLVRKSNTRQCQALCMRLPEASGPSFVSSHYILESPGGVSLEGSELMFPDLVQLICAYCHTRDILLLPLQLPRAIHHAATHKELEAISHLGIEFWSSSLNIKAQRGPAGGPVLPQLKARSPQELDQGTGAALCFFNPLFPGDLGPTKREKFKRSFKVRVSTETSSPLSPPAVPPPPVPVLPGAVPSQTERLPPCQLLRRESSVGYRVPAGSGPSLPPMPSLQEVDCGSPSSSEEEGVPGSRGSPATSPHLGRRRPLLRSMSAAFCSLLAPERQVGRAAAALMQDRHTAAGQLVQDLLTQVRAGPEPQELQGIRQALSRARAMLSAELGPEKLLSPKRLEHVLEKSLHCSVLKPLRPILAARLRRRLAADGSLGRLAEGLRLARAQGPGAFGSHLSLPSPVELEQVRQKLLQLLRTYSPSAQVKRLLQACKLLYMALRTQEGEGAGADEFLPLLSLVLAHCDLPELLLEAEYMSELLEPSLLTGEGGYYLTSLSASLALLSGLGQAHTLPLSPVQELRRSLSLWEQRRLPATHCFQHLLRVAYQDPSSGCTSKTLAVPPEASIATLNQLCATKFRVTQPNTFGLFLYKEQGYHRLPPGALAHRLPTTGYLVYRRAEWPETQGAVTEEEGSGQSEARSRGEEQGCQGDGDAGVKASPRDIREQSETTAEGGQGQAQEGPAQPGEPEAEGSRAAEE

[14] = NIH-3T3 fibroblast cytotoxicity, dose response, cytotoxicity control, cell-based, fluorescence, Alamar Blue, secondary assay (AID 2327); format: functional;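 note: NIH-3T3 mouse fibroblasts cultured with fluconazole at 8 µg/mL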
[15] = molecular target: Prothrombin (Bos taurus, UniProt P00735); assay: thrombin protease inhibitors – biochemical, fluorescence polarization, uHTS hits, dose response (AID 602369); format: functional
[16] = molecular target: 26S proteasome non-ATPase regulatory subunit 14 (Homo sapiens, UniProt O00487); assay: inhibition of proteasome subunit RPN11 – biochemical, fluorescence polarization, uHTS hits, confirmation (AID 602368); format: functional
Chain of 26S proteasome non-ATPase regulatory subunit 14 (O00487 whole entry): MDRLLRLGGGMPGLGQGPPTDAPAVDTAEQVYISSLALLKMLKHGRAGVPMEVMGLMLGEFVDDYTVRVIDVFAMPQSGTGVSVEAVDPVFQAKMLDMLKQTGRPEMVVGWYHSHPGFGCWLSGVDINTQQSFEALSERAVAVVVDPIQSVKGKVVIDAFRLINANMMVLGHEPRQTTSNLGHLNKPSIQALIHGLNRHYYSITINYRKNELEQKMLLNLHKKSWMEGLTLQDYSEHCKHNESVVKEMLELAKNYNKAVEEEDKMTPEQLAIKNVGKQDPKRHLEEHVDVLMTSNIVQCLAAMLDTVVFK

[17] = molecular target: T2, Rac GTPase-activating protein 1 (Homo sapiens, UniProt Q9H0H5); assay: blockers of MgcRacGAP-driven Rac1 GTP hydrolysis – biochemical, ADP Hunter fluorescence, primary and confirmatory, confirmation (AID 624330); format: functional
T2 sequence (Q9H0H5 whole entry): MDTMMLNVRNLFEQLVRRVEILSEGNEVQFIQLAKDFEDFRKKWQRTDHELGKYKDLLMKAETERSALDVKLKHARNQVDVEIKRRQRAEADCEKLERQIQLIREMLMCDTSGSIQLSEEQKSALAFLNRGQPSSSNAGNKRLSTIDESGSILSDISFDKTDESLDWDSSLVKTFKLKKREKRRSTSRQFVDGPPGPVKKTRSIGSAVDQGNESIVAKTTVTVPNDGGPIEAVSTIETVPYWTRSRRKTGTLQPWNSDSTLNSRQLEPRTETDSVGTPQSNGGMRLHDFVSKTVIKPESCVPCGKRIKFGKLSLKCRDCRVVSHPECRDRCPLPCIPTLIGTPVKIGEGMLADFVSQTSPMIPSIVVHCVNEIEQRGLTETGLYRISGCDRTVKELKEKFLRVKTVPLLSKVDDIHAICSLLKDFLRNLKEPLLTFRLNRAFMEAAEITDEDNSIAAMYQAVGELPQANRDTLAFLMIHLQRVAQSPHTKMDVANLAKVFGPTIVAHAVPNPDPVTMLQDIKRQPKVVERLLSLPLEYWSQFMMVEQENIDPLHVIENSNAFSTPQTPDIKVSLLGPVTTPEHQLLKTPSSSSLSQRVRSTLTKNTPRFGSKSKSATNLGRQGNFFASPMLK

[18] = fluconazole-exposed Candida albicans growth modulators – fluorescence, retest, confirmation (AID 2467); format: functional, cell-based
[19] = molecular target: T3, Carboxy-terminal domain RNA polymerase II polypeptide A small phosphatase 1 (Homo sapiens, UniProt Q9GZU7); assay: CTDSP1 inhibitors, concentration-response, biochemical, absorbance readout, ultra-high-throughput screen actives (AID 540297); format: functional
T3 sequence (Q9GZU7 whole entry): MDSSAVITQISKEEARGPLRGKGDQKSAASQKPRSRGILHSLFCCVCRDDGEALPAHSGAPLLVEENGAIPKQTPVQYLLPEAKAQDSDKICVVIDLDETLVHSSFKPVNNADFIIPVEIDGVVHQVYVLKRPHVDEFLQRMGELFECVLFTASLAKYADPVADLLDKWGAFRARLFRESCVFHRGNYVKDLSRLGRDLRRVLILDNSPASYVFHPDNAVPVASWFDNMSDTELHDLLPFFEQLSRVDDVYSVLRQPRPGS

[20] = molecular target: 72 kDa type IV collagenase (Homo sapiens, UniProt P08253); assay: Dose Response validation of uHTS RPN11 inhibitor hits using a MMP-2 Fluorescence assay.; format: functional
Chain of 72 kDa type IV collagenase (P08253 whole entry, the tested form may be a part): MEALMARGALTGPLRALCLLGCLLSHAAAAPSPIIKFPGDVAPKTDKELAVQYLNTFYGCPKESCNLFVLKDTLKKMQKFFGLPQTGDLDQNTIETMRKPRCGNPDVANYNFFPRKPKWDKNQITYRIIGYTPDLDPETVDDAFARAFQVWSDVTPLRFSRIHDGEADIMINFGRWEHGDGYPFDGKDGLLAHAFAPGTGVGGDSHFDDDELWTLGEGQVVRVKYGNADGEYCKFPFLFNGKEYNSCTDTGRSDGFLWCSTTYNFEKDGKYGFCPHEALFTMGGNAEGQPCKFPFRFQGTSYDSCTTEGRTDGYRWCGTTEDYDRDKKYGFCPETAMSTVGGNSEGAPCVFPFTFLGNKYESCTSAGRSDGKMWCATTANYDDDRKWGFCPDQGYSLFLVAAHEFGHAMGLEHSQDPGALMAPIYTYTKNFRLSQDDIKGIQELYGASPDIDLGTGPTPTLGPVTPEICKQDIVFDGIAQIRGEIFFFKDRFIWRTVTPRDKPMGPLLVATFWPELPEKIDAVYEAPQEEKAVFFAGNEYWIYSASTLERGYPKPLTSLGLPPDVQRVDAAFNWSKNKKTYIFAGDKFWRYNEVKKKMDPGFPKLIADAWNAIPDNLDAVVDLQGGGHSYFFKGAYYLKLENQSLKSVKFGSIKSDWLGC

[21] = inhibition of ARNT PAS-B/TACC3 complex formation – biochemical, AlphaScreen, cherry-picked samples, confirmation (AID 651703); format: functional, Homo sapiens;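 note: His-tagged ARNT PAS-B domain paired with GST-TACC3 E629A dimer coactivator fragment; potency of inhibitors that break up the complex and lower AlphaScreen signal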

Chain of Luciferin 4-monooxygenase (P08659 whole entry): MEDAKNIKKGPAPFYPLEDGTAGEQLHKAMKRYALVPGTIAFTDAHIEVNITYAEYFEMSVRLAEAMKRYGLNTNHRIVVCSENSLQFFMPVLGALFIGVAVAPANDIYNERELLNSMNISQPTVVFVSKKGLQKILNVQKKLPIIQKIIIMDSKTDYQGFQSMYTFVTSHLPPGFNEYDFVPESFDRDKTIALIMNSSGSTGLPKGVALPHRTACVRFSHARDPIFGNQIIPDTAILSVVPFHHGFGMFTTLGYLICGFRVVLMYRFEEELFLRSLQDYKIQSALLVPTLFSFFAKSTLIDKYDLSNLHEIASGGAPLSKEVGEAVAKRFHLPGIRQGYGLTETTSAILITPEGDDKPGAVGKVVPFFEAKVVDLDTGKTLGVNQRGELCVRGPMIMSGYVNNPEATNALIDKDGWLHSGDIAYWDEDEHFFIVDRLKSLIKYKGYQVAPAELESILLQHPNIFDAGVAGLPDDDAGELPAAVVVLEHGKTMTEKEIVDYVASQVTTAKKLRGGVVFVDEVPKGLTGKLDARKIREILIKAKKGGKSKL

**Q.** For `N#Cc1cc2c(nc1SCC(=O)Nc1nccs1)CCCCC2`, which EC50 [1] is on record?
**A.** > 50 µM (not active)

**Q.** What about the EC50 [2] of the same molecule?
**A.** > 100 µM (not active)

**Q.** And the IC50 [3]?
**A.** 11.8 µM (inactive)

**Q.** What about the IC50 [4] of the same molecule?
**A.** 14.9 µM (inactive)

**Q.** Which results are given for `CC(C)C1C(c2ccccc2)N(C)C(c2ccccc2)CC1(O)c1ccccc1` (stereo not drawn)?
**A.** EC50 [5]: 1.55 µM (active); EC50 [6]: > 60 µM (not active); EC50 [7]: 2.43 µM (active); AC50 [8]: 1.9 µM (active); IC50 [3]: > 64.6 µM (inactive); IC50 [4]: > 64.6 µM (inactive); CC50 [9]: 25.3 µM (active); EC50 [10]: 7.03 µM (active); EC50 [11]: 2.22 µM (active)

**Q.** Which IC50 [12] does the source give for `O=C(Nc1cccc(OC(F)(F)F)c1)C1Cc2c(-c3ccc4c(c3)OCO4)ccnc2O1` (stereo not drawn) here?
**A.** 3.19 µM (active)

**Q.** For `CN(CCc1ccccc1)C(=O)c1ccc(NC(=O)Cc2ccc(NC(=O)C3CCN(C(=O)C4CCC4)CC3)cc2)cc1`, which IC50 [13] is on record?
**A.** 16.9 µM (inactive)

**Q.** For `COc1ccc(O)c(/C=N/NC(=O)c2c(C)nnn2-c2nonc2N)c1`, which EC50 [14] is on record?
**A.** > 150 µM (inconclusive)

**Q.** What about the IC50 [15] of the same molecule?
**A.** 54.6 µM (active)

**Q.** What about the IC50 [16] of the same molecule?
**A.** 13.1 µM (active)

**Q.** What about the IC50 [17] of the same molecule?
**A.** 79.7 µM (active)

**Q.** And the EC50 [18]?
**A.** > 38 µM (not active)

**Q.** What about the IC50 [19] of the same molecule?
**A.** 6.12 µM (active)

**Q.** What about the IC50 [20] of the same molecule?
**A.** > 100 µM (inactive)

**Q.** Which AC50 [21] does the source give for `C/C(CC(=O)Nc1ccc(F)cc1)=N\NC(=O)c1ccccn1` here?
**A.** 89.2 µM (active)
